Like-named read-outs stand apart in the source and are kept apart here.
Experiments:
[1] = test system: MDA-MB 231; conditions: cited from earlier work
[2] = test system: AGS; assay: ATP assay under 1% (v/v) O2 versus 20% (v/v) O2, 72 h; assay type: cell-based, human; conditions: 1% (v/v) O2 vs 20% (v/v) O2
Method: The effects of drugs on cancer cell lines are usually tested under atmospheric conditions (20% (v/v) O2). However, the O2 content in tissues (normoxia) and solid tumors (hypoxia) is ≤ 5% (v/v). In some tumors (i.e., pancreatic tumors) the % O2 is even ≤ 1% (v/v). This affects cell metabolism and signaling pathways which depend on the hypoxia-induced Factor 1A (HIF1A) and it could affect the activity of certain drugs. […] The effects of these three OOPs were tested on the MDA-MB 231, SK-BR-3 and MCF-7 breast cancer and on the AGS stomach cancer cell lines.
Figure 6 Effect of O2 concentration on the antiproliferative/cytotoxic effect of OOPs. […] Cell viability was determined on (A) AGS, (B) MDA-MB 231, (C) MCF-7 and (D) SK-BR-3 cell lines using ATP-based luminescence assay. The results presented are from two independent experiments performed in triplicate. Bar graphs represent the mean cell count ± SE in each treatment group normalized to the control group (i.e., cells treated only with 0.2% (v/v) DMSO). * p < 0.05; ** p ≤ 0.01; *** p ≤ 0.001 (t-test) comparing the two different conditions.

[3] = test system: MCF-7; conditions: cited from earlier work
[4] = test system: MCF-10A cells; design: method as in PMID 23403296, PMID 33117773, PMID 24849787, PMID 30964898; conditions: cited from earlier work
[5] = test system: SK-MEL-28; assay: Annexin V-FITC/PI staining, flow cytometry; assay type: cell-based, human
From the text: (§1) To discern whether cell death triggered by OOPs treatment occurred via apoptosis or necrosis under the experimental conditions applied in this study, live cells treated with OOPs were stained simultaneously with FITC-conjugated annexin V and propidium iodide (PI). Annexin V binds to phosphatidylserine (PS) translocating from the inner to the outer leaflet of the plasma membrane in apoptotic cells. Therefore, annexin V-FITC binding to PS labels live apoptotic cells with green FL. […] PS exposure to the extracellular space and cell membrane permeability were analyzed by flow cytometry as described in detail in the Experimental Section. […] OOP concentrations used were equal to the EC50 values for each cell line (Table 1). annexin V and PI staining discriminated between early- (i.e., annexin V +ve and PI −ve) and late-apoptotic cells (i.e., annexin V +ve and PI +ve), as well as between necrotic (i.e., annexin V −ve and PI +ve) and live (i.e., annexin V −ve and PI −ve) cells (Table 4).
(§2) Apoptosis and necrosis were assessed by double staining with annexin V-FITC and propidium iodide (PI) and were analyzed using flow cytometry (FACS). Human cancer cells were plated in 96-well culture plates in 100 μL of complete medium and were allowed to adhere overnight (~16 h). […] In detail, 0.5 μL of a 500× stock of each tested compound in DMSO was added directly into each well in a final volume of 250 μL culture medium and was gently mixed by pipetting. Control wells were prepared under the same experimental conditions by adding only DMSO at a final concentration of 0.2% (v/v). At the end of the treatment, the cells were detached by trypsinization, media with serum was added to deactivate trypsin, and the cells from three wells were pooled together by centrifugation (1000 rpm, 5 min, 24 °C), washed with cold PBS, centrifuged (1000 rpm, 5 min, 24 °C) and finally resuspended in cold 1× annexin V binding buffer (10 mM HEPES pH = 7.4, 150 mM NaCl, 2.5 mM CaCl2) at a density of 10^4 cells/mL. Staining was performed by incubating with annexin V- FITC and propidium iodide (PI; BioLegend) for 15 min at room temperature in the dark, according to the manufacturer’s instructions. […] Cells treated with Triton X-100 (0.25% (v/v)) for 5 min at 4 °C were used as controls for 100% permeabilization of the plasma membrane and maximum fluorescence staining with PI (positive control for cells in necrosis). The presence of live, apoptotic or necrotic cells was assessed with the FACS Calibur (Becton–Dickinson, San Jose, CA, USA). In total, 10,000 cells were analyzed per measurement and the acquired data were analyzed using the FlowJo V.10.0.8 software (Tree Star Inc., Ashland, OR, USA). Each condition was analyzed in duplicate, and the results presented are from 2 or 3 independent experiments.
(§3) Data showing OOPs’ apoptotic/necrotic effect were derived from two or three independent experiments and were presented as the means ± SE of the percentage (%) of both annexin V-positive cells (early apoptotic events) and % of annexin V/PI positive cells (late apoptotic events) over the whole cell population normalized to the corresponding events of the control cells, as determined using the FlowJo software.

[6] = test system: MDA-MB 231; assay: Annexin V-FITC/PI staining, flow cytometry; assay type: cell-based, human
From the text: as §1, §2, §3

Row | Compound | bioactivity under hypoxia versus atmospheric O2 [2] | % Cell Viability ([5]; 48 h at EC50) [%] | Early Apoptotic (% ± S.D.) ([5]; 48 h at EC50) [%] | Late Apoptotic (% ± S.D.) ([5]; 48 h at EC50) | Total Apoptotic (%) ([5]; 48 h at EC50) | % Cell Viability ([6]; 48 h at EC50) [%] | Early Apoptotic (% ± S.D.) ([6]; 48 h at EC50) [%] | Late Apoptotic (% ± S.D.) ([6]; 48 h at EC50) [%] | Total Apoptotic (%) ([6]; 48 h at EC50) | further results
1 | COC(=O)C1=COC(C)[C@@H](C=O)[C@@H]1CC(=O)OCCc1ccc(O)c(O)c1 (mixture of isomers) [3a,b, oleuropein aglycone] | similar | 68 | 8.33 ± 1.9 | 4.91 ± 1.7% | 13.24 ± 3.7 | 69 | 4.17± 0.4 | 3.87 ± 3.7 | 8.04 ± 4.1 | EC50 ([1]; ref Mazzei et al. (2020) 27): 53 µM; EC50 ([3]; five days of treatment, ref Menendez et al. (2007) 17, read-out: concentration reducing cell viability by 50%): > 100 µM; sensitivity of cells to treatment ([4]; 150 μM): resistant
2 | C/C=C(/C=O)[C@@H](CC=O)CC(=O)OCCc1ccc(O)cc1 [compound 1, oleocanthal] | similar | 68 | 4.10 ± 0.2 | 2.47 ± 0.7% | 6.57 ± 0.5 | 85 | 1.19 ± 0.01 | 1.38 ± 0.1 | 2.56 ± 0.1 | EC50 ([1]; 48 or 72 h, different culture conditions): 10 to 18.5 µM; EC50 ([3]; 48 or 72 h, different culture conditions, read-out: EC50): 18 to 40 µM; sensitivity of cells to treatment ([4]; 40 μM): resistant
3 | C/C=C(/C=O)[C@@H](CC=O)CC(=O)OCCc1ccc(O)c(O)c1 [compound 2, oleacein] | – | 76 | 5.87 ± 1.1 | No L.A. | 5.87 ± 1.1 | 73 | 1.89 ± 0.03 | 1.49 ± 0.3 | 3.38 ± 0.2 | % Cell Viability ([5]; 72 h at EC50): 72%; Early Apoptotic (% ± S.D.) ([5]; 72 h at EC50): 6.70 ± 1.0%; Late Apoptotic (% ± S.D.) ([5]; 72 h at EC50): 1.34 ± 0.3%; Total Apoptotic (%) ([5]; 72 h at EC50): 8.04 ± 0.7%; % Cell Viability ([6]; 72 h at EC50): 70%; Early Apoptotic (% ± S.D.) ([6]; 72 h at EC50): 3.65 ± 0.5%; Late Apoptotic (% ± S.D.) ([6]; 72 h at EC50): 1.64 ± 0.5%; Total Apoptotic (%) ([6]; 72 h at EC50): 5.29 ± 1.0%
4 | ligstroside aglycone [4a,b] | less effective under hypoxic conditions | 82 | 1.86 ± 0.8 | No L.A. | 1.86 ± 0.8 | – | – | – | – | EC50 ([1]; 48 h treatment, ref Busnena et al. (2013) 23): ~80 µM; sensitivity of cells to treatment ([4]; 50 μM): resistant

From PMC9820430, “New Affordable Methods for Large-Scale Isolation of Major Olive Secoiridoids and Systematic Comparative Study of Their Antiproliferative/Cytotoxic Effect on Multiple Cancer Cell Lines of Different Cancer Origins” (International Journal of Molecular Sciences, 2022)
